From patent US12685312B2, “Sulfonamide apyrase inhibitors” (Texas Crop Science, Inc., priority 2022, dated 2026)

The compounds below were run on apyrase (assay: Screen for apyrase inhibitors (Method 1, in vitro phosphate-release absorbance assay)). Settings: inhibitor conc at 1 mM stock, 1 hr room temperature, absorbance 630 nm; rounded average of two assay results.
Format: biochemical
Experimental: Apyrase inhibitors useful as enhancers of pesticidal activity are assessed using an in vitro assay. The method of Windsor, Bio Techniques 33:1024-1030 (November 2002) was used as follows Screen for Apyrase Inhibitors- 96 well plates were used for the assay: (Greiner bio-one: REF-655901-96 well, PS, F-bottom, Clear, Non-binding) Buffers: • Reaction Buffer: 60 mM Hepes; 3 mM MgCl2, 3 mM CaCl2 and 3 mM ATP (pH 6.5) • Development Buffer A: 2% aqueous ammonium molybdate • Development Buffer B: 11% ascorbic acid in 37.5% TCA in water • Stop buffer C: 2% trisodium citrate in 2% acetic acid solution in water • Add 100 μl of reaction buffer to each well. • Add 10 μl of DMSO (control) or inhibitor/compound or compounds such as […] or orthovanadate to each well. […] A blank cell indicates either <10% observed inhibition or a large difference between repetitions. In certain examples, the lack of observed inhibition is due to a lack of solubility of the compound under assay conditions, rather than a lack of apyrase inhibitory activity.

Structure (SMILES)	% Inhibition of Apyrase [%]
O=C(Nc1ccc(F)cc1)c1ccc(Cl)c(S(=O)(=O)N2CCc3ccccc32)c1 [I-513, 4-chloro-N-(4-fluorophenyl)-3-(indolin-1-ylsulfonyl)benzamide]	56
Cn1cc(O)nc1NC(=O)c1cccc(S(=O)(=O)Nc2ccc(Br)cc2)c1 [I-272, 3-(N-(4-bromophenyl)sulfamoyl)-N-(4-hydroxy-1-methyl-1H-imidazol-2-yl)benzamide]	52
Cc1cccc(NS(=O)(=O)c2cc(C(=O)N3CCCc4ccccc43)ccc2C)c1 [I-438, 2-methyl-5-(1,2,3,4-tetrahydroquinoline-1-carbonyl)-N-(m-tolyl)benzenesulfonamide]	63
O=C(Nc1ccc(F)c(F)c1)c1cccc(S(=O)(=O)N2CCc3ccccc32)c1 [I-472, N-(3,4-difluorophenyl)-3-(indolin-1-ylsulfonyl)benzamide]	59
Cc1ccc(NS(=O)(=O)c2cccc(C(=O)Nc3c(C)cc(C)cc3C)c2)c(C)c1 [I-508, 3-(N-(2,4-dimethylphenyl)sulfamoyl)-N-mesitylbenzamide]	57
COc1ccc(S(=O)(=O)N2CCc3ccccc32)cc1C(=O)Nc1ccc(Br)c(C)c1 [I-471, N-(4-bromo-3-methylphenyl)-5-(indolin-1-ylsulfonyl)-2-methoxybenzamide]	59
Cc1ccc(NS(=O)(=O)c2ccc(C(=O)Nc3cccc(S(=O)(=O)N4CCCC4)c3)cc2)cc1 [I-204, N-(3-(pyrrolidin-1-ylsulfonyl)phenyl)-4-(N-(p-tolyl)sulfamoyl)benzamide]	69
COc1ccc([N+](=O)[O-])cc1NC(=O)c1ccc(C)c(S(=O)(=O)Nc2ccccc2)c1 [I-28, N-(2-methoxy-5-nitrophenyl)-4-methyl-3-(N-phenylsulfamoyl)benzamide]	23
O=C(Nc1ccc(F)c(Cl)c1)c1cccc(S(=O)(=O)Nc2ccc3c(c2)OCO3)c1 [I-190, 3-(N-(benzo[d][1,3]dioxol-5-yl)sulfamoyl)-N-(3-chloro-4-fluorophenyl)benzamide]	73
O=C(/C=C/c1cccc(Cl)c1)Nc1cccc(S(=O)(=O)Nc2ccc(Br)cc2)c1 [I-329, (E)-N-(3-(N-(4-bromophenyl)sulfamoyl)phenyl)-3-(3-chlorophenyl)acrylamide]	65
CCOc1ccccc1NC(=O)c1ccc(Cl)c(S(=O)(=O)N2CCc3ccccc32)c1 [I-434, 4-chloro-N-(2-ethoxyphenyl)-3-(indolin-1-ylsulfonyl)benzamide]	65
O=C(Nc1cccc([N+](=O)[O-])c1)c1cccc(S(=O)(=O)N2CCc3ccccc32)c1 [I-38, 3-(indolin-1-ylsulfonyl)-N-(3-nitrophenyl)benzamide]	14
COc1ccc(S(=O)(=O)N2CCc3ccccc32)cc1C(=O)Nc1cccc(C#N)c1 [I-442, N-(3-cyanophenyl)-5-(indolin-1-ylsulfonyl)-2-methoxybenzamide]	61
COc1ccc(NC(=O)c2ccccc2NS(=O)(=O)c2cccc(C(F)(F)F)c2)cc1OC [I-228, N-(3,4-dimethoxyphenyl)-2-((3-(trifluoromethyl)phenyl)sulfonamido)benzamide]	55
O=C(Nc1cc(F)ccc1F)c1cccc(S(=O)(=O)N2CCc3ccccc32)c1 [I-488, N-(2,5-difluorophenyl)-3-(indolin-1-ylsulfonyl)benzamide]	58
CC1Cc2ccccc2N1S(=O)(=O)c1cccc(C(=O)Nc2ccc3c(c2)OCO3)c1 (stereo not shown) [I-522, N-(benzo[d][1,3]dioxol-5-yl)-3-((2-methylindolin-1-yl)sulfonyl)benzamide]	55
O=C(Nc1ccc(F)c(F)c1)c1cccc(S(=O)(=O)Nc2ccc3c(c2)OCO3)c1 [I-220, 3-(N-(benzo[d][1,3]dioxol-5-yl)sulfamoyl)-N-(3,4-difluorophenyl)benzamide]	68
COc1ccccc1NS(=O)(=O)c1ccc(C(=O)Nc2cccc(C(F)(F)F)c2)cc1 [I-410, 4-(N-(2-methoxyphenyl)sulfamoyl)-N-(3-(trifluoromethyl)phenyl)benzamide]	29
Cc1ccc([N+](=O)[O-])cc1NC(=O)c1cc(S(=O)(=O)Nc2ccc(Br)cc2)c(Cl)cc1Cl [I-49, 5-(N-(4-bromophenyl)sulfamoyl)-2,4-dichloro-N-(2-methyl-5-nitrophenyl)benzamide]	11
O=C(c1cccc(S(=O)(=O)Nc2cccc(C(F)(F)F)c2)c1)N1CCc2ccccc21 [I-475, 3-(indoline-1-carbonyl)-N-(3-(trifluoromethyl)phenyl)benzenesulfonamide]	59

Continued, values first:

% Inhibition of Apyrase [%]	Structure (SMILES)
26	O=C(Nc1nccs1)c1cccc(NS(=O)(=O)c2ccc(Br)cc2)c1 [I-661, 3-((4-bromophenyl)sulfonamido)-N-(thiazol-2-yl)benzamide]
56	COc1ccc2c(c1)CCCN2C(=O)c1ccc(S(=O)(=O)Nc2ccccc2C)cc1 [I-872, 4-(6-methoxy-1,2,3,4-tetrahydroquinoline-1-carbonyl)-N-(o-tolyl)benzenesulfonamide]
40	O=C(Nc1cccc(S(=O)(=O)Nc2ccccc2Cl)c1)c1cnccn1 [I-752, N-(3-(N-(2-chlorophenyl)sulfamoyl)phenyl)pyrazine-2-carboxamide]
54	Cc1ccc(NS(=O)(=O)c2ccc(NC(=O)c3cccc(S(C)(=O)=O)c3)cc2)cc1C [I-989, N-(4-(N-(3,4-dimethylphenyl)sulfamoyl)phenyl)-3-(methylsulfonyl)benzamide]
44	O=C(Nc1cc(Cl)ccc1NS(=O)(=O)c1ccccc1F)c1ccc2c(c1)OCO2 [I-813, N-(5-chloro-2-((2-fluorophenyl)sulfonamido)phenyl)benzo[d][1,3] dioxole-5-carboxamide]
65	COc1ccccc1NC(=O)c1ccc(NS(=O)(=O)c2ccc3c(c2)OCCO3)cc1 [I-898, 4-((2,3-dihydrobenzo[b][1,4]dioxine)-6-sulfonamido)-N-(2-methoxyphenyl)benzamide]
3	O=C(c1ccc(NS(=O)(=O)c2ccc(F)cc2)cc1)N1CCc2ccccc21 [I-965, 4-fluoro-N-(4-(indoline-1-carbonyl)phenyl)benzenesulfonamide]
62	COc1ccccc1NS(=O)(=O)c1cccc(NC(=O)c2c[nH]c3ccccc23)c1 [I-707, N-(3-(N-(2-methoxyphenyl)sulfamoyl)phenyl)-1H-indole-3-carboxamide]
20	Cc1ccccc1NS(=O)(=O)c1ccc(C(=O)Nc2ccccc2C(=O)NC2CC2)cc1 [I-893, N-cyclopropyl-2-(4-(N-(o-tolyl)sulfamoyl)benzamido)benzamide]
67	O=C(Nc1cccnc1)c1cccc(NS(=O)(=O)c2ccc3c(c2)OCCCO3)c1 [I-629, 3-((3,4-dihydro-2H-benzo[b][1,4]dioxepine)-7-sulfonamido)-N-(pyridin-3-yl)benzamide]
56	COc1ccc(C(C)(C)C)cc1NC(=O)c1ccc(S(=O)(=O)N(C)c2ccccc2OC)cc1 [I-873, N-(5-(tert-butyl)-2-methoxyphenyl)-4-(N-(2-methoxyphenyl)-N-methylsulfamoyl)benzamide]
1	O=C(Nc1cccc(S(=O)(=O)Nc2ccccc2F)c1)c1cccs1 [I-776, N-(3-(N-(2-fluorophenyl)sulfamoyl)phenyl)thiophene-2-carboxamide]
80	CN(c1ccccc1)S(=O)(=O)c1ccccc1C(=O)Nc1ccc(Cl)cc1F [I-808, N-(4-chloro-2-fluorophenyl)-2-(N-methyl-N-phenylsulfamoyl)benzamide]
53	COc1ccccc1NC(=O)c1ccc(NS(=O)(=O)c2ccc(C(F)(F)F)cc2)cc1 [I-934, N-(2-methoxyphenyl)-4-((4-(trifluoromethyl)phenyl)sulfonamido) benzamide]
17	COc1ccccc1NS(=O)(=O)c1cccc(NC(=O)c2ccc(C)s2)c1 [I-761, N-(3-(N-(2-methoxyphenyl)sulfamoyl)phenyl)-5-methylthiophene-2-carboxamide]
5	O=C1Cc2cc(S(=O)(=O)Nc3ccccc3NC(=O)c3ccc(Cl)cc3)ccc2N1 [I-843, 4-chloro-N-(2-((2-oxoindoline)-5-sulfonamido)phenyl)benzamide]
54	O=C(Nc1ccc2c(c1)OCO2)c1ccc(C(=O)Nc2ccc3c(c2)OCO3)cc1 [I-876, N1,N4-bis(benzo[d][1,3]dioxol-5-yl)terephthalamide]
55	O=C(Nc1cccc(S(=O)(=O)N2CCOCC2)c1)c1cccc(S(=O)(=O)N2CCc3ccccc32)c1 [I-527, 3-(indolin-1-ylsulfonyl)-N-(3-(morpholinosulfonyl)phenyl)benzamide]
75	CN(c1ccccc1)S(=O)(=O)c1ccccc1C(=O)N1CCCc2ccccc21 [I-810, N-methyl-N-phenyl-2-(1,2,3,4-tetrahydroquinoline-1-carbonyl)benzenesulfonamide]
55	O=C(Nc1cccc(C(F)(F)F)c1)c1cccc(NS(=O)(=O)c2ccc(Cl)nc2)c1 [I-643, 3-((6-chloropyridine)-3-sulfonamido)-N-(3-(trifluoromethyl)phenyl)benzamide]
